What was measured:
Aurora-A = system: Aurora-A; design: method as in earlier work; settings: literature values; ref [10],[22],[27],[40],[44]–[64] as listed per inhibitor in Table 1; read-out: Targets (IC50 Value): Aurora-A; cited from earlier work
[1] = system: cleavage of PARP and caspase 7; test: Western blot of apoptotic markers in leukemia cell lines; assay type: cell-based, human; settings: 2, 4, 6, 12 and 24 hours, C1, SEM, KOPN8, TIB-202
Procedure: (§1) Following desired experimental conditions, cells were harvested and centrifuged at 1200 rpm at 4°C for 5 minutes. After removal of supernatant, cells were washed in cold PBS. Following an additional centrifugation step, supernatant was removed and the pellet was re-suspended in radioimmunoprecipitation assay (RIPA) buffer (50 mM Tris-HCl (pH 8), 150 mM NaCl, 1% NP-40, 0.5% sodium deoxycholate; 0.1% sodium dodecyl sulphate (SDS)) supplemented with 1% phosphatase inhibitor (Sigma-Aldrich), 1% protease inhibitor (Sigma-Aldrich) and 1% sodium orthovanadate (Alfa Aesar, Ward Hill, Massachusetts). Samples were transferred to Eppendorf tubes, left on ice for 10 minutes, vortexed and then centrifuged at 14 000 rpm for 10 minutes.
To begin, the protein content of the lysates was measured using the Bicinchoninic Acid (BCA) Protein Assay Kit (Pierce, Rockford, Illinois), which included a protein standard curve generated with bovine serum albumin. Appropriate volumes of samples and loading buffer (50 mM Tris-HCl (pH 6.8), 2% SDS, 10% glycerol, 1% β-mercaptoethanol, 12.5 mM EDTA, 0.02% bromophenol blue) were mixed, ensuring that equal amounts of protein were loaded (30 µg of protein per well). Samples were then resolved on SDS-PAGE using various percentages of acrylamide gels (8%–12%), depending on the proteins of interest. SDS-PAGE was run in SDS running buffer (25 mM Tris, 192 mM glycine, 0.1% SDS) and then transferred to nitrocellulose membranes in transfer buffer (48 mM Tris, 39 mM glycine, 20% (v/v) methanol) at 100 volts for 2 hours at 4°C. Immunoblots were then blocked in 5% skim milk in tris-buffered saline with 0.1% Tween-20 (TBS-T; 50 mM Tris-HCl, pH 7.5, 150 mM NaCl, 0.1% (v/v) Tween-20 (Sigma-Aldrich)) for 1 to 2 hours. Immunoblots were then incubated with selected primary antibodies diluted in TBS-T with 0.1% gelatin (Bio-Rad, Mississauga, Ontario) and 0.05% sodium azide (Sigma-Aldrich) overnight. […]

phospho-Aurora-A/B/C = test: Western blot of Aurora kinase phosphorylation in leukemia cell lines; assay type: cell-based, human
Procedure: as §1
To begin, the protein content of the lysates was measured using the Bicinchoninic Acid (BCA) Protein Assay Kit (Pierce, Rockford, Illinois), which included a protein standard curve generated with bovine serum albumin. Appropriate volumes of samples and loading buffer (50 mM Tris-HCl (pH 6.8), 2% SDS, 10% glycerol, 1% β-mercaptoethanol, 12.5 mM EDTA, 0.02% bromophenol blue) were mixed, ensuring that equal amounts of protein were loaded (30 µg of protein per well). Samples were then resolved on SDS-PAGE using various percentages of acrylamide gels (8%–12%), depending on the proteins of interest. SDS-PAGE was run in SDS running buffer (25 mM Tris, 192 mM glycine, 0.1% SDS) and then transferred to nitrocellulose membranes in transfer buffer (48 mM Tris, 39 mM glycine, 20% (v/v) methanol) at 100 volts for 2 hours at 4°C. Immunoblots were then blocked in 5% skim milk in tris-buffered saline with 0.1% Tween-20 (TBS-T; 50 mM Tris-HCl, pH 7.5, 150 mM NaCl, 0.1% (v/v) Tween-20 (Sigma-Aldrich)) for 1 to 2 hours. Immunoblots were then incubated with selected primary antibodies diluted in TBS-T with 0.1% gelatin (Bio-Rad, Mississauga, Ontario) and 0.05% sodium azide (Sigma-Aldrich) overnight. Primary antibodies included: Aurora-A (Cell Signalling, Danvers, Massachusetts; 1∶1000), Aurora-B (Cell Signalling, 1∶1000), phospho-Aurora-A/B/C (Cell Signalling, 1∶1000), caspase 7 (Cell Signalling, 1∶1000), PARP (Cell Signalling, 1∶2000) and β-Actin (Sigma-Aldrich, 1∶10000). Following washes with TBT-T 4 times for 8 to 10 minutes, immunoblots were incubated with appropriate secondary antibodies conjugated to horseradish peroxidise (Sigma-Aldrich) diluted in TBS-T plus 5% skim milk at a ratio of 1∶5000 for 2 hours at room temperature. After an additional round of washes in TBS-T, immunoblots were exposed to combined enhanced chemiluminescence (ECL) reagents (Reagent 1: 100 mM Tris-HCl (pH 8.5), 5.4 mM hydrogen peroxide; Reagent 2: 100 mM Tris-HCl (pH 8.5), 2.5 mM luminol, 0.4 mM p-coumaric acid) for 1 minute and developed by exposure to X-ray film (Christie InnoMed, Montreal, Quebec).
Leukemia cells were plated in a 6 well plate (BD Biosciences) at a concentration of 1×10^6 cells per well in a volume of 500 µl of Opti-MEM supplemented with FBS and antibiotics. Next, Silencer Select Negative Control Number 1 siRNA (Invitrogen), Aurora kinase A siRNA (s196, Invitrogen) and Aurora kinase B siRNA (s17611, Invitrogen) were diluted in individual tubes (BD Biosciences) to a final concentration of 30 nM in 500 µl Opti-MEM without supplements. Following, HiPerfect Transfection Reagent (Qiagen, Toronto, Ontario) was added to the diluted siRNA at a ratio of 3∶100 and the samples were left at room temperature for 10 minutes to allow for the formation of transfection complexes. The transfection complexes were then added to the cells at a volume of 500 µl per well and the plates were placed in the incubator for 6 hours. After incubation, 1.4 ml of Opti-MEM plus supplements were added to each well, for a total volume 2.4 ml per well. The cells were returned to the incubator for an additional 48 or 72 hours and then processed for immunoblotting.

Row | Structure (SMILES) | IC50 (Aurora-A) | cleavage of caspase 7, time course ([1]; 1 µM) | phosphorylation of Aurora kinases, inhibitor alone, TIB-202 (phospho-Aurora-A/B/C; 1 µM for 12 h, TIB-202, Lanes 3 and 6 of Figure 8) | phosphorylation of Aurora-A, time course, C1 (phospho-Aurora-A/B/C; 1 µM, 2, 4, 6, 12 and 24 hours, C1) | phosphorylation of Aurora-B and Aurora-C, time course (phospho-Aurora-A/B/C; 1 µM, 2, 4, 6, 12 and 24 hours, C1, SEM, KOPN8, TIB-202) | phosphorylation of Aurora-A, time course, SEM, KOPN8, TIB-202 (phospho-Aurora-A/B/C; 1 µM, 2, 4, 6, 12 and 24 hours, SEM, KOPN8, TIB-202) | phosphorylation of Aurora kinases, inhibitor after Aurora-B siRNA (phospho-Aurora-A/B/C; Aurora-B siRNA 60 hours, then 1 µM for 12 h, SEM and TIB-202, Lane 5) | cleavage of PARP, time course ([1]; 0.1 µM) | cleavage of caspase 7, time course ([1]; 0.1 µM) | phosphorylation of Aurora-B, inhibitor alone (phospho-Aurora-A/B/C; 0.1 µM for 12 hours, SEM and TIB-202, Lanes 3 and 6 of Figure 7) | phosphorylation of Aurora-A, time course (phospho-Aurora-A/B/C; 0.1 µM, 2, 4, 6, 12 and 24 hours, C1, SEM, KOPN8, TIB-202) | phosphorylation of Aurora-B and Aurora-C, time course, C1 and TIB-202 (phospho-Aurora-A/B/C; 0.1 µM, 2, 4, 6, 12 and 24 hours, C1 and TIB-202) | phosphorylation of Aurora-B, time course, SEM and KOPN8 (phospho-Aurora-A/B/C; 0.1 µM, 2, 4, 6, 12 and 24 hours, SEM and KOPN8) | phosphorylation of Aurora-B and Aurora-C, inhibitor after Aurora-A siRNA (phospho-Aurora-A/B/C; Aurora-A siRNA 60 hours, then 0.1 µM for 12 hours, SEM and TIB-202, Lane 5)
1 | CCN1CCN(C(=O)Cc2ccc(Nc3ncc(F)c(Nc4ccc(C(=O)Nc5ccccc5Cl)cc4)n3)cc2)CC1 [Aurora A Inhibitor I] | 3 nM | cleavage of caspase 7 beginning at 4 hours for TIB-202 and at 12 hours for the remaining cell lines | promoted dephosphorylation of Aurora-A and increased phosphorylation of Aurora-B and Aurora-C | slight increase in phosphorylation of Aurora-A at 12 and 24 hours | gradual increase in phosphorylation of Aurora-B and Aurora-C compared to vehicle control starting at 2 hours for SEM and KOPN8, 4 hours for TIB-202 and 6 hours for C1 | initial decrease, followed by a subsequent increase in phosphorylation of Aurora-A was apparent, starting at 6 hours for SEM and at 4 hours for KOPN8 and TIB-202 | decrease in phosphorylation of all three isoforms compared to treatment with Aurora A Inhibitor I alone or Aurora-B siRNA alone | – | – | – | – | – | – | –
2 | CCS(=O)(=O)Nc1ccc2c(c1)/C(=C(/Nc1ccc(CN3CCCCC3)cc1)c1ccccc1)C(=O)N2 [Hesperadin] | – | – | – | – | – | – | – | cleavage of PARP in all four cell lines starting at 12 hours | cleavage of caspase 7 beginning at 4 hours for C1 and at 12 hours for the remaining cell lines | promoted dephosphorylation of Aurora-B | remained phosphorylated in all of the cell lines throughout the duration of treatment, with a slight increase in activity at 12 and 24 hours | Dephosphorylation of Aurora-B and Aurora-C was initiated at 2 hours in C1 and TIB-202 and maintained for the duration of the treatment | dephosphorylation of Aurora-B was initiated at 2 hours in SEM and KOPN8 and maintained until 24 hours | decrease in phosphorylation of Aurora-B and Aurora-C compared to silencing of Aurora-A alone

From publication PMC4105567, “Aurora Kinases as Druggable Targets in Pediatric Leukemia: Heterogeneity in Target Modulation Activities and Cytotoxicity by Diverse Novel Therapeutic Agents” (PLoS ONE, 2014)
